Assay results taken from patent US20190010167A1, “INHIBITORS OF THE MENIN-MLL INTERACTION” (Vitae Pharmaceuticals, Inc., priority 2015, published 2019).
pIC50: −log10 of the molar value.

Experiments:
[1] = molecular target: T1, wild-type menin / MLL-AF9 fusion protein (Homo sapiens, UniProt O00255); experiment: AlphaLISA menin/MLL binding assay, wild-type menin (Assay 1); details: biotinylated wild-type menin 5 nM, MLL-AF9-FLAG lysate
T1 construct: made in house; host or cells: E. coli (menin); HEK293 cleared lysate (MLL-AF9-FLAG)
T1 sequence (O00255 1-610): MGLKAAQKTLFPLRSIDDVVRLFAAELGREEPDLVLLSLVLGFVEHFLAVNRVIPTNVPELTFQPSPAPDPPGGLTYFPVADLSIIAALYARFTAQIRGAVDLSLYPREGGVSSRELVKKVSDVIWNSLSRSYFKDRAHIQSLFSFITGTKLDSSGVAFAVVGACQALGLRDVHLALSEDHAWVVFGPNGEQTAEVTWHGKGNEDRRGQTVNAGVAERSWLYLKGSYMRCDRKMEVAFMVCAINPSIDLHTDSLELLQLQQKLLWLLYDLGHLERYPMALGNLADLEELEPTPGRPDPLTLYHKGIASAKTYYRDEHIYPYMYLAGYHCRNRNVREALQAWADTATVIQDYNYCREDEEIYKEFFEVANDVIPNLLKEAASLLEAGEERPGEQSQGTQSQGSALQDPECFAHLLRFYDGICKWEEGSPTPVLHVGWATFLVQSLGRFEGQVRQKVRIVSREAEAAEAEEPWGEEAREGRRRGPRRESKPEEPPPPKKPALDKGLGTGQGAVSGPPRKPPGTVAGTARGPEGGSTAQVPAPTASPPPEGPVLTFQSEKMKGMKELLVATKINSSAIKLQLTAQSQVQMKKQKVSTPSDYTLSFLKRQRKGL
How it was run: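 Biotinylated wild-type or mutated menin (5 nM, E. coli-expressed) was preincubated 30 min at RT with compound and HEK293 lysate containing MLL1-1,396–AF9 1-92–FLAG. Buffer was 50 mM Tris-HCl pH 7.4, 5% DMSO, 50 mM NaCl, 0.01% BSA, 1 mM DTT. Anti-FLAG acceptor and streptavidin donor beads (10 μg/mL each) were then added for 60 min. IC50 came from a four-parameter fit of the Alpha signal inhibition.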

[2] = molecular target: T2, menin/MLL (Gal4-Menin and MLL1-46-VP16) in HEK293 cells (Homo sapiens, UniProt O00255); experiment: Mammalian cellular two-hybrid assay in HEK293 cells (Assay 2, cell assay); type: cell-based; details: Gal4-Menin/MLL1-46-VP16 two-hybrid, NanoLuc luciferase reporter, 16-18 h
T2 construct: expressed in transfected cells; host or cells: HEK293 (ATCC)
T2 sequence (P04386 1-147 partner limits assumed, species assumed, one chain of several): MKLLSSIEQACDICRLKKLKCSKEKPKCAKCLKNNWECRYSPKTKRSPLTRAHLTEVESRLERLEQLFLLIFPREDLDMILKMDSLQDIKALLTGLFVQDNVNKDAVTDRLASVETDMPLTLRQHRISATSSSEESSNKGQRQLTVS
Procedure: Potencies of inhibitor compounds against menin/MLL were tested in a mammalian cellular two-hybrid assay system. HEK293 cells (American Type Culture Collection (ATCC); Manassas, Va.) were co-transfected with three plasmids: one encoding Gal4-Menin (200 ng per 10^6 cells), another encoding MLL1-46-VP16 (100 ng per 10^6 cells), and a reporter plasmid pNL3.3-4×UAS (500 ng per 10^6 cells) encoding secreted NanoLuc® luciferase (Promega) with the upstream 4×UAS repeats for Gal4 binding. Transfection was performed in Opti-MEM® media using Lipofectamine® LTX with Plus™ Reagent (ThermoFisher Scientific) according to manufacturer's protocol. Cells were incubated with transfection reagents at 37° C. 5% CO2 for 5-6 h, harvested by trypsinization and centrifugation at 300×g for 5 min and resuspended in Gibco® DMEM media (phenol red-free, no antibiotics) containing 10% delipidated fetal bovine serum (FBS) (ThermoFisher Scientific). Concentration of cells in the media was adjusted to 3.5×10^5 cells/ml, and 100 μl of the cell suspension was dispensed into each well of 96-well Costar™ black clear bottom cell culture plates (Fisher Scientific). Tested compounds were added as 100 μL of 2× solutions in the media. Final concentration of DMSO was 0.1% in all wells. The cells were incubated with tested compounds at 37° C. 5% CO2 for 16-18 h. At the end of the incubation, 40 μL of the conditioned media from each well was transferred into each well of 96-well Costar™ black half-area plates (Fisher Scientific), to which 40 μl of 2× reconstituted NanoGlo® luciferase assay reagent (Promega) was added and thoroughly mixed on a microshaker for 2-3 min. Remaining media in the culture plates was removed by emptying the wells and blotting the plates on filter paper. The cells were lysed with 1× CellTiter-Glo® Luminescent Cell Viability Assay reagent (Promega) for assessing toxicity of the tested compounds. Both, Nano-Glo® and CellTiter-Glo® luminescence intensities were measured on EnVision® multilabel plate reader (PerkinElmer). Percent inhibition values were calculated based on Nano-Glo® luciferase activity observed with the tested compounds vs. DMSO control and commercially available menin inhibitor MI-2-2 (4-(4-(5,5-Dimethyl-4,5-dihydrothiazol-2-yl)piperazin-1-yl)-6-(2,2,2-trifluoroethyl)thieno[2,3-d]pyrimidine) (EMD Millipore, Cat. No. 444825) incubated with cells at 5 μM. These percent inhibition values were regressed against compound concentrations in the assay using non-linear 4-parameter logit curve fitting (XLFit, IDBS). Half maximal inhibitory concentrations (IC50) were calculated as the parameters of the fit corresponding to the inflection points on semi-logarithmic dose-response curves.

| pIC50 [1] | pIC50 [2] | Structure (SMILES) |
| --- | --- | --- |
| > 7.00 | > 7.00 | Cc1c(CN2CCC3(CCN(c4ncnc5sc(CC(F)(F)F)cc45)C3)C2)ccc2[nH]c(C#N)cc12 (racemic) [Example 30, 4-methyl-5-((7-(6-(2,2,2-trifluoroethyl)thieno[2,3-d]pyrimidin-4-yl)-2,7-diazaspiro[4.4]nonan-2-yl)methyl)-1H-indole-2-carbonitrile] |
| > 7.00 | > 7.00 | Cc1c(CN2CCC3(CCN(c4ncnc5sc(CC(F)(F)F)cc45)C3)C2)ccc2[nH]c(C#N)cc12 (single isomer, unassigned) [Example 30a, 4-methyl-5-((7-(6-(2,2,2-trifluoroethyl)thieno[2,3-d]pyrimidin-4-yl)-2,7-diazaspiro[4.4]nonan-2-yl)methyl)-1H-indole-2-carbonitrile] |
| ≤ 6.00 | ≤ 6.00 | FC(F)(F)Cc1cc2c(N3CCC4(CC3)CN(Cc3ccccc3)C4)ncnc2s1 [Example 1, 4-(2-benzyl-2,7-diazaspiro[3.5]nonan-7-yl)-6-(2,2,2-trifluoroethyl) thieno[2,3-d]pyrimidine] |
| 6.00 to 7.00 | ≤ 6.00 | CC(C)CN1CC2(CCN(c3ncnc4sc(CC(F)(F)F)cc34)CC2)C1 [Example 2, 4-(2-isobutyl-2,7-diazaspiro[3.5]nonan-7-yl)-6-(2,2,2-trifluoroethyl)thieno[2,3-d]pyrimidine] |
| 6.00 to 7.00 | ≤ 6.00 | CC(C)(C)CN1CC2(CCN(c3ncnc4sc(CC(F)(F)F)cc34)CC2)C1 [Example 18, 4-(2-neopentyl-2,7-diazaspiro[3.5]nonan-7-yl)-6-(2,2,2-trifluoroethyl)thieno[2,3-d]pyrimidine] |
| 6.00 to 7.00 | ≤ 6.00 | N#Cc1ccc2c(CN3CC4(CCN(c5ncnc6sc(CC(F)(F)F)cc56)CC4)C3)c[nH]c2c1 [Example 20, 3-((7-(6-(2,2,2-trifluoroethyl)thieno[2,3-d]pyrimidin-4-yl)-2,7-diazaspiro[3.5]nonan-2-yl)methyl)-1H-indole-6-carbonitrile] |
| 6.00 to 7.00 | ≤ 6.00 | CCC(C)CN1CC2(CCN(c3ncnc4sc(CC(F)(F)F)cc34)CC2)C1 (centres unmarked) [Example 22, 4-(2-(2-methylbutyl)-2,7-diazaspiro[3.5]nonan-7-yl)-6-(2,2,2-trifluoroethyl)thieno[2,3-d]pyrimidine] |
| 6.00 to 7.00 | ≤ 6.00 | FC(F)(F)Cc1cc2c(N3CCC4(CCN(Cc5ccccc5)C4)CC3)ncnc2s1 [Example 23, 4-(2-benzyl-2,8-diazaspiro[4.5]decan-8-yl)-6-(2,2,2-trifluoroethyl)thieno[2,3-d]pyrimidine] |
| 6.00 to 7.00 | ≤ 6.00 | CC(C)CN1CCC2(CCN(c3ncnc4sc(CC(F)(F)F)cc34)CC2)C1 [Example 24, 4-(2-isobutyl-2,8-diazaspiro[4.5]decan-8-yl)-6-(2,2,2-trifluoroethyl)thieno[2,3-d]pyrimidine] |
| > 7.00 | 6.00 to 7.00 | Cc1c(CN2CCC3(CCN(c4ncnc5sc(CC(F)(F)F)cc45)CC3)C2)ccc2[nH]c(C#N)cc12 [Example 26, 4-methyl-5-((8-(6-(2,2,2-trifluoroethyl)thieno[2,3-d]pyrimidin-4-yl)-2,8-diazaspiro[4.5]decan-2-yl)methyl)-1H-indole-2-carbonitrile] |
| > 7.00 | 6.00 to 7.00 | FC(F)(F)Cc1cc2c(N3CCC4(CCN(Cc5ccc6[nH]ccc6c5)C4)C3)ncnc2s1 (centres unmarked) [Example 28, 4-(7-((1H-indol-5-yl)methyl)-2,7-diazaspiro[4.4]nonan-2-yl)-6-(2,2,2-trifluoroethyl)thieno[2,3-d]pyrimidine] |
| > 7.00 | 6.00 to 7.00 | FC(F)(F)Cc1cc2c(N3CCC4(CCN(Cc5ccc6cc[nH]c6c5)C4)C3)ncnc2s1 (centres unmarked) [Example 29, 4-(7-((1H-indol-6-yl)methyl)-2,7-diazaspiro[4.4]nonan-2-yl)-6-(2,2,2-trifluoroethyl)thieno[2,3-d]pyrimidine] |
| > 7.00 | 6.00 to 7.00 | N#Cc1ccc(CN2CCC3(CCN(c4ncnc5sc(CC(F)(F)F)cc45)C3)C2)cc1 (centres unmarked) [Example 33, 4-((7-(6-(2,2,2-trifluoroethyl)thieno[2,3-d]pyrimidin-4-yl)-2,7-diazaspiro[4.4]nonan-2-yl)methyl)benzonitrile] |
| > 7.00 | 6.00 to 7.00 | CC(=O)Nc1ccc(CN2CCC3(CCN(c4ncnc5sc(CC(F)(F)F)cc45)C3)C2)cc1 (centres unmarked) [Example 34, N-(4-((7-(6-(2,2,2-trifluoroethyl)thieno[2,3-d]pyrimidin-4-yl)-2,7-diazaspiro[4.4]nonan-2-yl)methyl)phenyl)acetamide] |
| > 7.00 | 6.00 to 7.00 | CS(=O)(=O)Nc1ccc(CN2CCC3(CCN(c4ncnc5sc(CC(F)(F)F)cc45)C3)C2)cc1 (centres unmarked) [Example 38, N-(4-((7-(6-(2,2,2-trifluoroethyl)thieno[2,3-d]pyrimidin-4-yl)-2,7-diazaspiro[4.4]nonan-2-yl)methyl)phenyl)methanesulfonamide] |
| > 7.00 | > 7.00 | O=c1[nH]c2ccc(CN3CCC4(CCN(c5ncnc6sc(CC(F)(F)F)cc56)C4)C3)cc2[nH]1 (centres unmarked) [Example 39, 5-((7-(6-(2,2,2-trifluoroethyl)thieno[2,3-d]pyrimidin-4-yl)-2,7-diazaspiro[4.4]nonan-2-yl)methyl)-1H-benzo[d]imidazol-2(3H)-one] |
| > 7.00 | 6.00 to 7.00 | O=c1[nH]c2ccc(CN3CCC4(CCN(c5ncnc6sc(CC(F)(F)F)cc56)C4)C3)cc2o1 (centres unmarked) [Example 40, 6-((7-(6-(2,2,2-trifluoroethyl)thieno[2,3-d]pyrimidin-4-yl)-2,7-diazaspiro[4.4]nonan-2-yl)methyl)benzo[d]oxazol-2(3H)-one] |
| ≤ 6.00 | – | Cc1c(CN2CCC3(CC2)CCN(c2ncnc4sc(CC(F)(F)F)cc24)C3)ccc2[nH]c(C#N)cc12 [Example 117, 4-methyl-5-((2-(6-(2,2,2-trifluoroethyl)thieno[2,3-d]pyrimidin-4-yl)-2,8-diazaspiro[4.5]decan-8-yl)methyl)-1H-indole-2-carbonitrile] |
| 6.00 to 7.00 | – | O=C1CC2(CCN(Cc3ccc4[nH]c(=O)[nH]c4c3)C2)CN1c1ncnc2sc(CC(F)(F)F)cc12 (centres unmarked) [Example 118, 7-((2-oxo-2,3-dihydro-1H-benzoldlimidazol-5-yl)methyl)-2-(6-(2,2,2-trifluoroethyl)thieno[2,3-d]pyrimidin-4-yl)-2,7-diazaspiro[4.4]nonan-3-one] |

| Structure (SMILES) | pIC50 [1] | pIC50 [2] |
| --- | --- | --- |
| Cn1c(=O)[nH]c2cc(CN3CCC4(CCN(c5ncnc6sc(CC(F)(F)F)cc56)C4)C3)ccc21 (centres unmarked) [Example 41, 1-methyl-5-((7-(6-(2,2,2-trifluoroethyl)thieno[2,3-d]pyrimidin-4-yl)-2,7-diazaspiro[4.4]nonan-2-yl)methyl)-1H-benzoldlimidazol-2(3H)-one] | > 7.00 | > 7.00 |
